Source: patent publication US9896441B2 (Lycera Corporation, priority 2014, dated 2018)

Assays:
[1] = target: T1, Gal4-RORγ-LBD (Homo sapiens, UniProt P51449); test: Gal4-RORγ Luciferase Reporter Assay in HEK-293T Cells; assay type: cell-based; conditions: HEK-293 cells; for Gal4-RORγ Assay Max Response: maximum response
T1 construct: expressed in transfected cells
T1 sequence (P51449 269-508 limits assumed): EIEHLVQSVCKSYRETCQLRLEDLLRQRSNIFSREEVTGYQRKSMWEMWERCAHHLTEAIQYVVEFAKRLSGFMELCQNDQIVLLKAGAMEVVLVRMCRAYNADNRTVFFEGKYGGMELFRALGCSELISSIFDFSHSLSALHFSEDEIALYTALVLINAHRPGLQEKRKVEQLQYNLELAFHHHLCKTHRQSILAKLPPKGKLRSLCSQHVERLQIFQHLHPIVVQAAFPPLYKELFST
Summary of the method: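 Max Response was taken as the upper plateau of a 4-parameter logistic fit of luciferase signal, normalized to 100 for wells without ursolic acid or compound. Transiently Gal4-RORγ-LBD/Gal4-luc transfected HEK-293 cells carrying […] ursolic acid were incubated with test compounds (0.2% DMSO) overnight at 37 °C and read with One-Glo.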

[2] = target: T2, RORγ-LBD (Homo sapiens, UniProt P51449); test: RORγ-Ligand Binding Domain (LBD) TR-FRET Assay; assay type: biochemical; conditions: for TR-FRET Assay Max Response: maximum response;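 for TR-FRET Assay Max Response: 665/615 nm signal ratio set to 100 without ursolic acid or test compound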
T2 construct: made in house; host or cells: SF9 cells (baculovirus); used as diluted lysate
T2 sequence (P51449 269-508 limits assumed): T1 sequence (P51449 269-508 limits assumed)
Summary of the method: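 Lysate from SF9 cells expressing His-RORγ-LBD is diluted to about 3 nM final in 50 mM Tris pH 7.0 assay buffer. A biotin-tagged SRC1 LXXLL peptide goes in at 200 nM final, plus ursolic acid at 2 μM final. Test compounds carry 1% DMSO final; signal read by TR-FRET.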

[3] = luciferase reporter, in presence of ursolic acid
[4] = luciferase reporter, with ursolic acid

EC50 [1, 3] [nM] | EC50 ([2]; RORγ-LBD TR-FRET assay) [nM] | EC50 [1, 4] [nM] | EC50 ([2]; RORγ-LBD TR-FRET) [nM] | EC50 ([1]; ursolic acid present, luciferase readout) [nM] | EC50 ([2]; with 2 μM ursolic acid (RORγ antagonist), highest test concentration 10 μM) [nM] | SMILES | Gal4-RORγ Assay Max Response [1, 3] | TR-FRET Assay Max Response ([2]; RORγ-LBD TR-FRET assay)
< 500 | < 500 | – | – | – | – | O=C(O)C1CCN(C(=O)CC[C@H]2CN(S(=O)(=O)c3cccc(C(F)(F)F)c3)c3cc(/C=C/c4c(F)cccc4Cl)ccc3O2)CC1 [Example 129O, (S,E)-1-(3-(6-(2-chloro-6-fluorostyryl)-4-((3-(trifluoromethyl)phenyl)sulfonyl)-3,4-dihydro-2H-benzo[b][1,4]oxazin-2-yl)propanoyl)piperidine-4-carboxylic acid] | ** (a value in the range of greater than 90 to 150) | *** (a value in the range of greater than 150 to 200)
< 500 | < 500 | – | – | – | – | COC(=O)CCC1CC(S(=O)(=O)c2cccc(C(F)(F)F)c2)c2cc(/C=C(\C)c3c(F)cccc3Cl)ccc2O1 (centres unmarked) [Example 186H, methyl (E)-3-(6-(2-(2-chloro-6-fluorophenyl)prop-1-en-1-yl)-4-((3-(trifluoromethyl)phenyl)-sulfonyl)chroman-2-yl)propanoate] | ** (a value in the range of greater than 90 to 150) | *** (a value in the range of greater than 150 to 200)
500 to 5000 | < 500 | – | – | – | – | C/C(=C\c1ccc2c(c1)N(S(=O)(=O)c1cccc(C(F)(F)F)c1)C[C@H](CCC(=O)NCC(=O)O)O2)c1c(F)cccc1Cl [Example 129E, (S,E)-(3-(6-(2-(2-chloro-6-fluorophenyl)prop-1-en-1-yl)-4-((3-(trifluoro-methyl)phenyl)sulfonyl)-3,4-dihydro-2H-benzo[b][1,4]oxazin-2-yl)propanoyl)glycine] | ** (a value in the range of greater than 90 to 150) | **** (a value greater than 200)
< 500 | < 500 | – | – | – | – | C/C(=C\c1ccc2c(c1)N(S(=O)(=O)c1cccc(C(F)(F)F)c1)C[C@H](CCC(=O)N1CC(C(=O)O)C1)O2)c1c(F)cccc1Cl [Example 129D, (S,E)-1-(3-(6-(2-(2-chloro-6-fluorophenyl)-prop-1-en-1-yl)-4-((3-(trifluoromethyl)phenyl)sulfonyl)-3,4-dihydro-2H-benzo[b][1,4]oxazin-2-yl)propanoyl)azetidine-3-carboxylic acid] | ** (a value in the range of greater than 90 to 150) | **** (a value greater than 200)
– | – | – | – | < 500 | < 500 | O=C(O)CCC[C@H]1CN(S(=O)(=O)c2cc(C(F)(F)F)cnc2OCCO)c2cc(/C=C/c3c(F)cccc3Cl)ccc2O1 [Example 195B, (S,E)-4-(6-(2-chloro-6-fluorostyryl)-4-((2-(2-hydroxyethoxy)-5-(trifluoro-methyl)pyridin-3-yl)sulfonyl)-3,4-dihydro-2H-benzo[b][1,4]-oxazin-2-yl)butanoic acid] | – | –

More lines, now with the values behind:

SMILES | EC50 [1, 3] [nM] | EC50 ([2]; RORγ-LBD TR-FRET assay) [nM] | EC50 [1, 4] [nM] | EC50 ([2]; RORγ-LBD TR-FRET) [nM] | EC50 ([1]; ursolic acid present, luciferase readout) [nM] | EC50 ([2]; with 2 μM ursolic acid (RORγ antagonist), highest test concentration 10 μM) [nM] | Gal4-RORγ Assay Max Response [1, 3] | TR-FRET Assay Max Response ([2]; RORγ-LBD TR-FRET assay)
C/C(=C\c1ccc2c(c1)N(S(=O)(=O)c1cccc(C(F)(F)F)c1)C[C@H](CCNC(=O)OC(C)(C)C)O2)c1c(F)cccc1Cl [Example 110, tert-Butyl (S,E)-(2-(6-(2-(2-chloro-6-fluorophenyl)prop-1-en-1-yl)-4-((3-(trifluoromethyl)phenyl)sulfonyl)-3,4-dihydro-2H-benzo[b][1,4]oxazin-2-yl)ethyl)carbamate] | 500 to 5000 | < 500 | – | – | – | – | ** (a value in the range of greater than 90 to 150) | *** (a value in the range of greater than 150 to 200)
O=C(O)CC[C@H]1CN(S(=O)(=O)c2cn(CC(F)F)nc2OCCO)c2cc(/C=C/c3c(Cl)cccc3C(F)(F)F)ccc2O1 [Example 89EF, (S,E)-3-(6-(2-chloro-6-(trifluoromethyl)styryl)-4-((1-(2,2-difluoroethyl)-3-(2-hydroxyethoxy)-1H-pyrazol-4-yl)sulfonyl)-3,4-dihydro-2H-benzo[b][1,4]oxazin-2-yl)propanoic acid] | – | – | < 500 | < 500 | – | – | – | –
CCOc1nn(CC)cc1S(=O)(=O)N1C[C@H](CCC(=O)O)Oc2ccc(/C=C/c3nccs3)cc21 [Example 89Q, (S,E)-3-(4-((3-ethoxy-1-ethyl-1H-pyrazol-4-yl)sulfonyl)-6-(2-(thiazol-2-yl)vinyl)-3,4-dihydro-2H-benzo[b][1,4]oxazin-2-yl)propanoic acid] | – | – | > 10000 | > 10000 | – | – | – | –
COC(=O)CC[C@H]1CN(S(=O)(=O)c2cccc(C(F)(F)F)c2)c2cc(/C=C/c3c(OC)cccc3C(F)(F)F)ccc2O1 [Example 89ES, methyl (S,E)-3-(6-(2-methoxy-6-(trifluoromethyl)styryl)-4-((3-(trifluoromethyl)phenyl)-sulfonyl)-3,4-dihydro-2H-benzo[b][1,4]oxazin-2-yl)propanoate] | – | – | 500 to 5000 | < 500 | – | – | – | –
CCOc1sc(CC)nc1S(=O)(=O)N1C[C@H](CCC(=O)O)Oc2ccc(/C=C(\C)c3c(F)cccc3Cl)cc21 [Example 73, (S,E)-3-(6-(2-(2-Chloro-6-fluorophenyl)prop-1-en-1-yl)-4-((5-ethoxy-2-ethylthiazol-4-yl)sulfonyl)-3,4-dihydro-2H-benzo[b][1,4]oxazin-2-yl)propanoic acid] | – | – | < 500 | < 500 | – | – | – | –
COc1cc(S(=O)(=O)N2c3cc(/C=C(\C)c4c(F)cccc4Cl)ccc3O[C@@H](CNC(C)=O)[C@H]2C)ccc1F [Example 137] | < 500 | < 500 | – | – | – | – | ** (a value in the range of greater than 90 to 150) | **** (a value greater than 200)
CCC(=Cc1ccc2c(c1)N(S(=O)(=O)c1cccc(C(F)(F)F)c1)C[C@H](CCC(=O)O)O2)CC [Example 95E, (S)-3-(6-(2-ethylbut-1-en-1-yl)-4-((3-(trifluoromethyl)phenyl)-sulfonyl)-3,4-dihydro-2H-benzo[b][1,4]oxazin-2-yl)propanoic acid] | – | – | < 500 | < 500 | – | – | – | –
COc1cc(S(=O)(=O)N2c3cc(/C=C(\C)c4c(F)cccc4Cl)ccc3C[C@@H](O)[C@H]2C)ccc1F (racemic) [Example 169, (2R,3R)-7-((E)-2-(2-Chloro-6-fluorophenyl)prop-1-en-1-yl)-1-((4-fluoro-3-methoxyphenyl)sulfonyl)-2-methyl-1,2,3,4-tetrahydroquinolin-3-ol] | < 500 | < 500 | – | – | – | – | * (a value in the range of 30 to 90) | *** (a value in the range of greater than 150 to 200)
Cc1cc(O)cc(C)c1/C=C/c1ccc2c(c1)N(S(=O)(=O)c1cccc(C(F)(F)F)c1)C[C@H](CCC(=O)O)O2 [Example 89BG, (S,E)-3-(6-(4-hydroxy-2,6-dimethylstyryl)-4-((3-(trifluoromethyl)phenyl)sulfonyl)-3,4-dihydro-2H-benzo[b][1,4]oxazin-2-yl)propanoic acid] | – | – | 500 to 5000 | < 500 | – | – | – | –
CC(C)(O[C@@H]1Cc2ccc(OCc3c(F)cccc3Cl)cc2N(S(=O)(=O)c2cccc(C(F)(F)F)c2)C1)C(=O)O [Example 172, (R)-2-((7-((2-Chloro-6-fluorobenzyl)oxy)-1-((3-(trifluoromethyl)phenyl)sulfonyl)-1,2,3,4-tetrahydroquinolin-3-yl)oxy)-2-methylpropanoic acid] | 500 to 5000 | < 500 | – | – | – | – | ** (a value in the range of greater than 90 to 150) | ** (a value in the range of greater than 90 to 150)
C/C(=C\c1ccc2c(c1)N(S(=O)(=O)c1cccc(C(F)(F)F)c1)C[C@H](CCN1CCC(O)C1)O2)c1c(F)cccc1Cl (stereo partly drawn) [Example 119C, 1-(2-((S)-6-((E)-2-(2-chloro-6-fluorophenyl)prop-1-en-1-yl)-4-((3-(trifluoromethyl)-phenyl)sulfonyl)-3,4-dihydro-2H-benzo[b][1,4]oxazin-2-yl)ethyl)pyrrolidin-3-ol] | 500 to 5000 | < 500 | – | – | – | – | ** (a value in the range of greater than 90 to 150) | *** (a value in the range of greater than 150 to 200)
COc1cc(S(=O)(=O)N2C[C@H](CNC(=O)c3ccc(C(=O)O)cc3)Oc3ccc(/C=C(\C)c4c(F)cccc4Cl)cc32)ccc1F [Example 134, (S,E)-4-(((6-(2-(2-Chloro-6-fluorophenyl)prop-1-en-1-yl)-4-((4-fluoro-3-methoxyphenyl)sulfonyl)-3,4-dihydro-2H-benzo[b][1,4]oxazin-2-yl)methyl)carbamoyl)benzoic acid] | < 500 | < 500 | – | – | – | – | *** (a value in the range of greater than 150 to 200) | **** (a value greater than 200)
CC1(C)CCC(=Cc2ccc3c(c2)N(S(=O)(=O)c2cccc(C(F)(F)F)c2)C[C@H](CCC(=O)O)O3)CC1 [Example 95H, (S)-3-(6-((4,4-dimethylcyclo-hexylidene)methyl)-4-((3-(trifluoromethyl)phenyl)sulfonyl)-3,4-dihydro-2H-benzo[b][1,4]oxazin-2-yl)propanoic acid] | – | – | 500 to 5000 | < 500 | – | – | – | –
